target: CDK2 (human) (UniProt P24941); assay: Enzyme Assay; settings: not given

Compound | IC50 [nM]
CC[C@H](CO)Nc1cc(NCc2ccccc2)c2ncn(C(C)C)c2n1 | 180
CC[C@H](CO)Nc1cc(NCc2ccc(-c3ccccn3)cc2)c2ncn(C(C)C)c2n1 | 250
CC[C@@H](CO)Nc1cc(NCc2ccccc2)c2ncn(C(C)C)c2n1 | 310
CC[C@@H](CO)Nc1cc(NCc2ccc(-c3ccccn3)cc2)c2ncn(C(C)C)c2n1 | 100

target: ROCK2 (human) (UniProt O75116); assay: Assessment of ROCK2 Kinase Activity (ProQinase Setup); settings: not given
Sequence (O75116 whole entry, looked up): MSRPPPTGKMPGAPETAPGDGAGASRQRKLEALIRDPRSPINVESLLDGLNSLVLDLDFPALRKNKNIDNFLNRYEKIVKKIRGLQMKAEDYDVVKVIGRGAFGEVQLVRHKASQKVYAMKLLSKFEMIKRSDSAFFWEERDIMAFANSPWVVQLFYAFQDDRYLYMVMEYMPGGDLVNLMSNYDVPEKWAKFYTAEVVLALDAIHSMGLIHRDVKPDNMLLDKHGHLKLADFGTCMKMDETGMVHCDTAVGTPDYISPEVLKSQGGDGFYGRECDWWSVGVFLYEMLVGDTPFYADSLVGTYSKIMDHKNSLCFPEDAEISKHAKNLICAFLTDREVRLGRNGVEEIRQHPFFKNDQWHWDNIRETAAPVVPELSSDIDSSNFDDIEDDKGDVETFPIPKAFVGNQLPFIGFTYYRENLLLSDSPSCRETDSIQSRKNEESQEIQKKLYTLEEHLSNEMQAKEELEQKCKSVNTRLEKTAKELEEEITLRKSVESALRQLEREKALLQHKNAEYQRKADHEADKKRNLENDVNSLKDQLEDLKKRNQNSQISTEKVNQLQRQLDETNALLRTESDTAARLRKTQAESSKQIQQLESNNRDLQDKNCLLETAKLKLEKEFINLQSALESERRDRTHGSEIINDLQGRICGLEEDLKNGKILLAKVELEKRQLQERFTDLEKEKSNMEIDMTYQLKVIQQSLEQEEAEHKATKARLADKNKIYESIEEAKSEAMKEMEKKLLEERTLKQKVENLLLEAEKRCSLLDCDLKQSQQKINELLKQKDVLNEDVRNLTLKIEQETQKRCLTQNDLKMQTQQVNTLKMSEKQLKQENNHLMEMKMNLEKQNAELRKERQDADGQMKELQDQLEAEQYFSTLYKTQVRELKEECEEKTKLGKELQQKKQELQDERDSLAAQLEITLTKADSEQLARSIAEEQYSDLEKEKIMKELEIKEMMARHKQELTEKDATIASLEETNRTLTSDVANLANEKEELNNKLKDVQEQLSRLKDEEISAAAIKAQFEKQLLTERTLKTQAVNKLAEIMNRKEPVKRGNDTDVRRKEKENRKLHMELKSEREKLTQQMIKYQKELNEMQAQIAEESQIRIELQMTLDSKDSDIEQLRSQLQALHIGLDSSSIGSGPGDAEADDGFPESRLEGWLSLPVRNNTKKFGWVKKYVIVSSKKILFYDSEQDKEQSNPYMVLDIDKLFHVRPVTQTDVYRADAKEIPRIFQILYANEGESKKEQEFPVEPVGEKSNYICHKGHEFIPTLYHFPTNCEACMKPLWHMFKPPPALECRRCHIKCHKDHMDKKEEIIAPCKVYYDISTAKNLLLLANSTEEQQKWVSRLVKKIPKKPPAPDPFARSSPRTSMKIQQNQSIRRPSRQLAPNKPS

Compound | IC50 [nM]
NCc1ccc(C(=O)Nc2ccncc2F)cc1-c1cccc(CC(=O)OCC2CCCC2)c1 | 100 to 1000
NCc1ccc(C(=O)Nc2ccncc2F)cc1-c1cccc(C(=O)OC[C@H]2CCCO2)c1 | 100 to 1000
COCCCOC(=O)c1cccc(-c2cc(C(=O)Nc3ccncc3)ccc2CN)c1 | 100 to 1000
NCc1ccc(C(=O)Nc2ccncc2F)cc1-c1cccc(CC(=O)OC2CC3CCC2C3)c1 (stereo unspecified) | 100 to 1000

target: MAPK14 (UniProt Q16539); assay: p38 Kinase Inhibition; settings: not given
Sequence (Q16539 whole entry, looked up): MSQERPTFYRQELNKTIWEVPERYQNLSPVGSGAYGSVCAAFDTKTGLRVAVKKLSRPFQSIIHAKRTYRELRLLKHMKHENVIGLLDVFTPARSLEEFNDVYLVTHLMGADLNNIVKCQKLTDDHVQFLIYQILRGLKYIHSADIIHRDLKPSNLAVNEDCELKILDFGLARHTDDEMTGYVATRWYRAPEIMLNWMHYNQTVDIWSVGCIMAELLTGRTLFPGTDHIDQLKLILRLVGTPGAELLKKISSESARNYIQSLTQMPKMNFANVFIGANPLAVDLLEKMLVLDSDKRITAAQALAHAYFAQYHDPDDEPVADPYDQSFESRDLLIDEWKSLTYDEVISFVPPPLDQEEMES

Compound | IC50 [nM]
C[C@]1(C(=O)N2CCOCC2)CO[C@H](c2nc(-c3ccc(F)cc3)c(-c3ccnc(NCc4ccccn4)n3)[nH]2)OC1 | 11
COc1cc2ncnc(N3CCN(C(=S)NCc4ccc5c(c4)OCO5)CC3)c2cc1OC | > 30000
COc1cc2ncnc(N3CCN(C(=S)NCc4ccccc4)CC3)c2cc1OC | > 30000

target: PIK3CA (human) (UniProt P42336); assay: Assessment of PIK3CA Kinase Activity in NZB5 Cells; settings: not given
Sequence (P42336 whole entry, looked up): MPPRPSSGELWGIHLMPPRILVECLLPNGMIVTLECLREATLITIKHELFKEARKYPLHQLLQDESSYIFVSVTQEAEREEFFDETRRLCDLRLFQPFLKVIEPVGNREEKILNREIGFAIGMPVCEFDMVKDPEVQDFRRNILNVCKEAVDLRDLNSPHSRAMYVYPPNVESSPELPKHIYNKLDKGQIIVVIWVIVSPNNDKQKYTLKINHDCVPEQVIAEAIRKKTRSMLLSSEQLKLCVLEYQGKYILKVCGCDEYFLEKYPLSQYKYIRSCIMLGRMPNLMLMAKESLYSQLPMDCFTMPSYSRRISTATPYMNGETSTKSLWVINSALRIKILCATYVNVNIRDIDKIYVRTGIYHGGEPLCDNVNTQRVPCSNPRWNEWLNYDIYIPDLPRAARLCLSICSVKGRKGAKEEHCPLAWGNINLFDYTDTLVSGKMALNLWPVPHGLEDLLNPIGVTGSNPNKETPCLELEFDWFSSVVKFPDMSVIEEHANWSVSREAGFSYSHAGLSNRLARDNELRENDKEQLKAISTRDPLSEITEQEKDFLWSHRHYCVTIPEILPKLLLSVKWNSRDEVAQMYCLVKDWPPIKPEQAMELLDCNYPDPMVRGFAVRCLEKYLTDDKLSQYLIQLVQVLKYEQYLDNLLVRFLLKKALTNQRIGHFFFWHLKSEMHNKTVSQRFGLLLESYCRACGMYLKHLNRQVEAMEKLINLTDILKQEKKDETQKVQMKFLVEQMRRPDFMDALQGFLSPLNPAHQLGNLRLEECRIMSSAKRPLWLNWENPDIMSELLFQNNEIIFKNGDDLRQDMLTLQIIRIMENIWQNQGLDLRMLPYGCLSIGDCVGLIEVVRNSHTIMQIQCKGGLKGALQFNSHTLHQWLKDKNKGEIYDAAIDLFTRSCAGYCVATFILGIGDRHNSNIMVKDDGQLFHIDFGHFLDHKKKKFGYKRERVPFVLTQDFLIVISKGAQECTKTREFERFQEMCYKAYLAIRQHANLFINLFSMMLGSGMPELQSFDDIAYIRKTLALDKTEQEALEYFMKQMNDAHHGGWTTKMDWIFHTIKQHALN

Compound | IC50 [nM]
Cc1ccc([N+](=O)[O-])cc1S(=O)(=O)N(C)N=Cc1cnn2cc(Br)ccc12 | > 20000
Cc1ccc([N+](=O)[O-])cc1S(=O)(=O)N(C)N=Cc1cnn2cccc(Br)c12 | > 20000

target: MAPK14 (UniProt Q16539); assay: p38-alpha Inhibition; settings: not given

Compound | IC50 [nM]
ON1=CC=C(C=C1)c2[nH]c3cccnc3c2c4ccc(F)cc4 | 2500
CCOCn1c(-c2ccncc2)c(-c2ccc(F)cc2)c2ncccc21 | 21
ON1=CC=Cc2[nH]c(c3ccncc3)c(c4ccc(F)cc4)c12 | 6700

target: EGFR (human) (UniProt P00533); assay: not given; settings: a431
Sequence (P00533 whole entry, looked up): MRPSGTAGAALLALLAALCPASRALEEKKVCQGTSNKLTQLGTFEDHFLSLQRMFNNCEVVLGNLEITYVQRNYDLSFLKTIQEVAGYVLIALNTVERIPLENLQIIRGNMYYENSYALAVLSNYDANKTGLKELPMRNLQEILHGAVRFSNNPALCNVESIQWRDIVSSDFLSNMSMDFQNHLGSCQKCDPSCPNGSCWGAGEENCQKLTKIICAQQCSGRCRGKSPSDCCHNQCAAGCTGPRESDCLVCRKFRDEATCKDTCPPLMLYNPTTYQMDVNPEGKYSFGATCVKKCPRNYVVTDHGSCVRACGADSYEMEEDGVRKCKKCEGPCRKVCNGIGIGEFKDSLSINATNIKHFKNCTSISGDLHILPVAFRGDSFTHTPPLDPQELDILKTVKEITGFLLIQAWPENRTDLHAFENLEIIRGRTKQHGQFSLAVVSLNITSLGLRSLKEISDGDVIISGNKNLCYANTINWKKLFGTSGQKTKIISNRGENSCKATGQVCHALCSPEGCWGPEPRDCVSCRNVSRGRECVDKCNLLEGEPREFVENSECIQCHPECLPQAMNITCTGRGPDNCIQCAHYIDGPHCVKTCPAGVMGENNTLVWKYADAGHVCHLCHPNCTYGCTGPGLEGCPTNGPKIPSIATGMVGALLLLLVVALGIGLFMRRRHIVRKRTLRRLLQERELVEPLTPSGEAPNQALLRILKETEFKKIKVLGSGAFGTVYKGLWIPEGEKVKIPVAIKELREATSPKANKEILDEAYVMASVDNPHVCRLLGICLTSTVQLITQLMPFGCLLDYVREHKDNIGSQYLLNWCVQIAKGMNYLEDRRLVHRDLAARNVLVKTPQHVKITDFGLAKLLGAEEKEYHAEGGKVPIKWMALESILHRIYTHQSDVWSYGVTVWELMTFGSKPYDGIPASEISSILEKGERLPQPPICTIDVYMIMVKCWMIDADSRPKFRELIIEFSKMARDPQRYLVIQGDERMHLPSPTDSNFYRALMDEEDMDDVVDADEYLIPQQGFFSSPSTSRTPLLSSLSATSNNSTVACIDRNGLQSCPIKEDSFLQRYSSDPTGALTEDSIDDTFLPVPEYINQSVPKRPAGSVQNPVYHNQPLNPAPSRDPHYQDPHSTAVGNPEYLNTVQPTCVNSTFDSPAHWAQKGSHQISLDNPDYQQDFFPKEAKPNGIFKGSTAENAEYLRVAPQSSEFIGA

Compound | EC50 [nM]
O=C(C=C1CCNCC1)Nc1ccc2ncnc(Nc3ccc4[nH]ccc4c3)c2c1 | 300
COCCOc1cc2ncnc(Nc3ccc4[nH]ccc4c3)c2cc1NC(=O)C=C1CCNCC1 | 13
O=C(C=C1CCNC1)Nc1ccc2ncnc(Nc3cccc(Br)c3)c2c1 | 13000
CCOc1cc2ncc(C#N)c(Nc3ccc(OCc4ccccn4)c(Cl)c3)c2cc1NC(=O)C=C1CCNCC1 | 160

target: CDK2 (human) (UniProt P24941); assay: Enzyme Assay; settings: not given; remark: another data set of the same source

Compound | IC50 [nM]
CC[C@H](CO)Nc1cc(NCc2ccccc2)c2ncn(C(C)C)c2n1 | 300
CC[C@H](CO)Nc1cc(NCc2ccc(-c3ccccn3)cc2)c2ncn(C(C)C)c2n1 | 360
CC[C@@H](CO)Nc1cc(NCc2ccccc2)c2ncn(C(C)C)c2n1 | 420
CC[C@@H](CO)Nc1cc(NCc2ccc(-c3ccccn3)cc2)c2ncn(C(C)C)c2n1 | 150

target: EGFR (human) (UniProt P00533); assay: not given; settings: not given

Compound | IC50 [nM]
CC(C)(C)NC(=O)c1cccc(Oc2ccc(Nc3ncnc4ccn(CCO)c34)cc2Cl)c1 | 2.3
O=C(O)C1=Cc2c(Cl)ncnc2NCC1 | 36
O=C1C2=C(C(=O)c3c(O)ccc(O)c31)[C@@H](O)[C@@H](O)[C@@H](O)C2 | 13000
O=C1C(CO)=C(CO)C(=O)c2c(O)ccc(O)c21 | 15000

target: EGFR (human) (UniProt P00533); assay: not given; settings: a431; remark: another data set of the same source

Compound | IC50 [nM]
COc1ccc(OC)c(Cc2cc3c(NC4C=C(Br)C=CC4)nc(N)nc3[nH]2)c1 (stereo unspecified) | > 50000

target: ROCK2 (human) (UniProt O75116); assay: Assessment of ROCK2 Kinase Activity (Fluorescence Polarization Assay); settings: not given

Compound | IC50 [nM]
CCCOC(=O)c1cc(-c2cc(C(=O)Nc3ccncc3)ccc2C(C)N)c[nH]1 (stereo unspecified) | < 100
COC(=O)c1cc2c(-c3cc(C(=O)Nc4ccncc4)ccc3C(C)N)cccc2[nH]1 (stereo unspecified) | 100 to 1000
Cc1ccc(S(=O)(=O)CCOC(=O)c2cccc(-c3cc(C(=O)Nc4ccncc4)ccc3C(C)N)c2)cc1 (stereo unspecified) | 100 to 1000
CC(N)c1ccc(C(=O)Nc2ccncc2)cc1-c1cccc(C(=O)OCc2ccncc2)c1 (stereo unspecified) | < 100

target: EGFR (human) (UniProt P00533); assay: not given; settings: not given; remark: another data set of the same source

Compound | IC50 [nM]
COC(=O)CCc1c(SSc2c(CCC(=O)OC)c3ccccc3n2C)n(C)c2ccccc12 | > 100000
Cn1c(SSc2c(C(=O)Nc3cccnn3)c3ccccc3n2C)c(C(=O)Nc2cccnc2)c2ccccc21 | > 100000
Cn1c(SSc2c(C(=O)Nc3ccccc3)c3cc(C(F)(F)F)ccc3n2C)c(C(=O)Nc2ccccc2)c2cc(C(F)(F)F)ccc21 | > 100000
CN(C)CCCn1c(SSc2c(C(=O)Nc3ccccc3)c3ccccc3n2CCCN(C)C)c(C(=O)Nc2ccccc2)c2ccccc21 | 26000

target: PIK3CA (human) (UniProt P42336); assay: Assessment of PI3K Dependent Phosphorylation of p-AKT(T308) in PC3 Cells; settings: pc-3

Compound | IC50 [nM]
CSc1c(-c2ccncc2)nc(-c2ccc(NC(=O)Nc3ccc(C(N)=O)cc3)cc2)nc1N1CCOCC1 | < 10
CCOc1cnc(-c2ccc(NC(=O)Nc3ccc(NS(C)(=O)=O)cc3)cc2)nc1N1CCOCC1 | < 10
CSc1c(-c2ccncc2)nc(-c2ccc(NC(=O)Nc3ccc(N4CCOCC4=O)cc3)cc2)nc1N1CCOCC1 | 291
CSc1cnc(-c2ccc(NC(=O)Nc3ccc(N4CCOCC4=O)cc3)cc2)nc1N1CCOCC1 | 141

Reference: the Kinase Knowledgebase extract (Sharma et al. 2016)
